Measurements reported in patent US20250325531A1, “TREATMENT OF SYSTOLIC DYSFUNCTION” (MyoKardia, Inc., priority 2024, published 2025).

Columns and labels:
healthy subjects [1] = assay: Safety and tolerability (AEs, ECG, hs-troponin I) after single ascending doses in healthy volunteers; assay type: in vivo, human
Description: (§1) PK and PD data were collected as described herein. […] Changes from Baseline at each postbaseline timepoint were assessed.
A 12-lead electrocardiogram (ECG) was obtained after the subjects had rested in a supine position for at least 10 minutes. […] Digital 12-lead ECG evaluations was performed after 10 minutes of rest at Screening, predose on Day 1 (within 2 hours of dosing), and at various predetermined time points. Each time an ECG was completed, a 10-second paper ECG rhythm strip would also be obtained and maintained in the subject's source documentation.
The ECGs were transmitted to the core ECG laboratory who read the recordings in a blinded manner. An automated methodology was utilized with manual over-reading by a cardiologist. The following intervals were measured: RR, PR, QRS, and QT. Heart rate (HR) was calculated as 60/(RR×1000) (with RR expressed in msec) and rounded to the nearest integer.
Corrected QT interval (QTc) was calculated using the manually over-read QT values per the standard procedures of the central ECG laboratory. Each individual ECG QT value was corrected for HR. The measured QT data were corrected for HR using the Fridericia correction QTcF and the Bazzett method (QTcB) as per the following formulae/method (with QT, RR and QTc expressed in msec): […]
Any abnormal findings judged by the investigator to be clinically important were recorded as adverse events (AEs). AEs were mapped to system organ classes (SOCs) and preferred terms (PTs) using the Medical Dictionary for Regulatory Activities (MedDRA). AEs were monitored during the study and the data analyzed with respect to overall incidence, severity, and potential relationship to study medication. The blinded AEs were presented to the SRC for review after each cohort to aid in their decision on the dose of the subsequent cohort or if the study should be terminated. […] No ECG changes or symptoms were noted.
For the final analysis, the AEs were grouped by treatment group with all of the subjects who received placebo pooled as 1 group. AEs with onset on or after the first dose of study medication, or with an onset before the first dose of study medication that increased in severity on or after the first dose of study medication. Treatment-emergent AEs (defined as AEs starting […]) were summarized for the Safety Analysis Population by MedDRA SOC and PT, and by severity and relationship to treatment. Severe and life-threatening AEs, SAEs, and AEs leading to study withdrawal, if any, were presented in data listings.
Serum samples were drawn for hs-troponin I. Analyses were performed using the Abbott Architect STAT High Sensitivity Troponin I assay.

healthy subjects [2] = assay: Transthoracic echocardiography (TTE) pharmacodynamics after single ascending doses in healthy volunteers; assay type: in vivo, human; details: for SET, mean (SD) increase from Baseline: 1.5 to 2 hours postdose
Description: To assess pharmacodynamic effects, serial echocardiograms were performed. The sonographers used in the study completed Echo protocol training and submitted an example of a study for evaluation to the core laboratory for evaluation. The core TTE lab certified that the sonographer was able to perform the TTEs at a level satisfactory for obtaining the required protocol data.
These criteria were chosen to prevent subjects from having prolongation of SET that might lead to myocardial ischemia. Dose escalation stopping criteria also included observation of a Baseline-corrected, group mean relative increase of >20% in any 2 sequential TTE assessments in at least 2 measures of LV contractility: LVOT-VTI, LVFS, LVEF, or LVSV in subjects receiving Compound I. Placebo-controlled evaluation may have been considered. For this comparison, subjects who received placebo may have been pooled across cohorts.
as §1
SET as determined by TTE was assessed using summary statistics. Observations and change from Baseline were summarized by treatment at each time point and the maximum change from Baseline determined for each subject. In addition, categorical analyses were performed on the number of subjects with a change from Baseline >50 msec and the number of subjects with a change from Baseline >75 msec in 1 or any 2 sequential TTE assessments. The relationship to Compound I plasma concentration to SET was explored. An analysis of SET placebo-adjusted change from Baseline was also performed.
As the Cmax occurred at between 4 and 6 hours in most of the subjects, the TTE obtained at 6 hours postdose was considered the best timepoint to explore the relationship between concentration and pharmacological effect. TTEs obtained at 1.5 and 3 hours after dosing were before the Cmax and at 9 hours were after the peak Cmax. Based on the preclinical data, it was considered unlikely that there would be a prolonged lag between the Cmax and peak pharmacological effect. As the exposure after the administration of the 350 mg and 525 mg doses were very similar, it was decided to not only present the results from these groups separately, but also to combine the data from these groups. By combining the data from the 2 groups, the number of subjects dosed was increased from 6 to 12, thus increasing the power to observe a statistically significant change from Baseline in the TTE parameters of interest.

[3] = 6 hours postdose, plasma concentration bin 0-1000 ng/mL (n = 29)
[4] = 6 hours postdose, plasma concentration bin 1001-2000 ng/mL (n = 9)
[5] = 6 hours postdose, plasma concentration bin >2000 ng/mL (n = 10)
[6] = plasma concentrations >2000 ng/ml, 6 hours postdose

For Cn1cc(S(=O)(=O)[C@@](C)(F)C2CCN(C(=O)Nc3ccon3)CC2)c(C(F)F)n1 [Compound I, (R)-4-(1-((3-(difluoromethyl)-1-methyl-1H-pyrazol-4-yl)sulfonyl)-1-fluoroethyl)-N-(isoxazol-3-yl) piperidine-1-carboxamide], the “subjects with AEs related to treatment” value (healthy subjects [1]; 50 mg (50.0%)) was 3 subjects, the “serious AE, one subject” value (healthy subjects [1]; 100 mg, 16-22 hours postdosing) was “short duration of complete AV block” and the “subjects with AEs related to treatment” value (healthy subjects [1]; 350 mg (50.0%)) was 3 subjects. For the same molecule, the hs-troponin I concentration, one subject (healthy subjects [1]; 525 mg, 6 hours postdose, upper limit of normal 15) was 16 ng/L, the “SET, mean (SD) increase from Baseline” value (healthy subjects [2]; 350 mg and 525 mg combined) was 18.0 (19.5) msec and the “SET, mean (SD) increase from Baseline” value (healthy subjects [2]; 350 mg) was 19.2 (20.5) msec. The “DBP, placebo-corrected LS mean difference of change from Baseline” value (healthy subjects [2]; [3]) was 2.277 mm Hg, the “E/A ratio, placebo-corrected LS mean difference of change from Baseline” value (healthy subjects [2]; [3]) was 0.150 and the “HR, placebo-corrected LS mean difference of change from Baseline” value (healthy subjects [2]; [3]) was −1.070 bpm. For the same molecule, the “LVEDD, placebo-corrected LS mean difference of change from Baseline” value (healthy subjects [2]; [3]) was −0.014 cm, the “LVESD, placebo-corrected LS mean difference of change from Baseline” value (healthy subjects [2]; [3]) was 0.025 cm and the “LVFS, placebo-corrected LS mean difference of change from Baseline” value (healthy subjects [2]; [3]) was −0.560%. For the same molecule, the “MPI, placebo-corrected LS mean difference of change from Baseline” value (healthy subjects [2]; [3]) was −0.007, the “SBP, placebo-corrected LS mean difference of change from Baseline” value (healthy subjects [2]; [3]) was −0.623 mm Hg and the “DBP, placebo-corrected LS mean difference of change from Baseline” value (healthy subjects [2]; [4]) was 2.937 mm Hg. The “HR, placebo-corrected LS mean difference of change from Baseline” value (healthy subjects [2]; [4]) was 0.336 bpm, the “LVEDD, placebo-corrected LS mean difference of change from Baseline” value (healthy subjects [2]; [4]) was −0.041 cm and the “LVEDV, placebo-corrected LS mean difference of change from Baseline” value (healthy subjects [2]; [4]) was -6.100 mL. The “MPI, placebo-corrected LS mean difference of change from Baseline” value (healthy subjects [2]; [4]) was −0.021, the “SBP, placebo-corrected LS mean difference of change from Baseline” value (healthy subjects [2]; [4]) was 1.132 mm Hg and the “DBP, placebo-corrected LS mean difference of change from Baseline” value (healthy subjects [2]; [5]) was 1.540 mm Hg. For the same molecule, the “E/A ratio, placebo-corrected LS mean difference of change from Baseline” value (healthy subjects [2]; [5]) was −0.047, the “E/e′(lateral), placebo-corrected LS mean difference of change from Baseline” value (healthy subjects [2]; [5]) was −0.063 and the “HR, placebo-corrected LS mean difference of change from Baseline” value (healthy subjects [2]; [5]) was 2.871 bpm. The “MPI, placebo-corrected LS mean difference of change from Baseline” value (healthy subjects [2]; [5]) was 0.033, the “SBP, placebo-corrected LS mean difference of change from Baseline” value (healthy subjects [2]; [5]) was −1.572 mm Hg and the “plasma concentrations at which PD effects were discernable” value (healthy subjects [2]; echocardiographic measures) was no less than 1000 ng/mL. The “IVRT (mitral inflow doppler), placebo-corrected LS mean difference” value (healthy subjects [2]; [6]) was 12.0 ms and the “stroke volume, placebo-corrected LS mean difference±SE” value (healthy subjects [2]; [6]) was 8.20 ± 3.99 mL.
